Test results taken from patent publication US20250215029A1 (Recludix Pharma, Inc., priority 2022, published 2025).
Where two headings read alike, the source gives them in different places.

Molecular target: T1, pY705-STAT3 in PBMC (Homo sapiens, UniProt P40763)
T1 construct: Cryopreserved Peripheral Blood Mononuclear Cells (PBMC) are from AllCells; host or cells: cryopreserved PBMC
Assay: MSD-pSTAT-PBMC Assay (pSTAT3, IL-6 stimulated)
Format: cell-based
Conditions: compound 3 hrs, then 10 ng/mL IL-6 for 10 min, Table 115
Summary of the method: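 MSD electrochemiluminescence read-out: total STAT captured, probed with anti-pY641-STAT6 or anti-pY705-STAT3. Human PBMC, 3 h compound pretreatment, 10 min stimulation (IL-4 1 ng/mL or IL-6 10 ng/mL). Unstimulated signal subtracted, DMSO-normalized, variable-slope IC50.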

T1 sequence (P40763 whole entry): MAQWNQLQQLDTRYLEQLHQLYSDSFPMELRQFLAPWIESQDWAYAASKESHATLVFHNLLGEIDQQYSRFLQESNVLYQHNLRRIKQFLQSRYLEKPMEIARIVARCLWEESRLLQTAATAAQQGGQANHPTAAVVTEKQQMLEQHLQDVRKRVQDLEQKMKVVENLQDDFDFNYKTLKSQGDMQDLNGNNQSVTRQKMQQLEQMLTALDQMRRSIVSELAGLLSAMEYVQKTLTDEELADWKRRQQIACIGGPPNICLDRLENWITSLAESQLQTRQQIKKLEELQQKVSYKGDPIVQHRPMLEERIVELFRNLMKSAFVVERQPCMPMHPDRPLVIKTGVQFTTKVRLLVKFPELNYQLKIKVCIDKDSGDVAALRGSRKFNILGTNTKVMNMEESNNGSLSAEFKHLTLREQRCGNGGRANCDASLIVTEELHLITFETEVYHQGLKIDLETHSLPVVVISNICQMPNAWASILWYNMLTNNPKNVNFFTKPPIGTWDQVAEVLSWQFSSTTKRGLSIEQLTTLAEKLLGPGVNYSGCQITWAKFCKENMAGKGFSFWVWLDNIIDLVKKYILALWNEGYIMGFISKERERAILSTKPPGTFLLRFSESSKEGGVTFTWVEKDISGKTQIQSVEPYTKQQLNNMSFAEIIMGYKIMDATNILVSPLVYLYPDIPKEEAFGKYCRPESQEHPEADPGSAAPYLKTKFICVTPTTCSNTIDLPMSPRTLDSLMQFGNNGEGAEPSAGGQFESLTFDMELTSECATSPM

For CC(C)COC(=O)[C@H](C)NP(=O)(Oc1ccccc1)C(F)c1ccc2sc(C(=O)N[C@H]3CCC[C@H]4CC[C@@H](C(=O)N5CC(c6cnccc6F)C5)N4C3=O)cc2c1 (stereo partly drawn) [Compound 277, isobutyl ((fluoro(2-(((3S,6S,9aS)-3-(3-(4-fluoropyridin-3-yl)azetidine-1-carbonyl)-5-oxooctahydro-1H-pyrrolo[1,2-a]azepin-6-yl)carbamoyl)benzo [b]thiophen-5-yl)methyl)(phenoxy)phosphoryl)-L-alaninate], the IC50 (PBMC, read-out: STAT3) was < 100 nM.
CCCOC(=O)[C@H](C)NP(=O)(Cc1ccc2sc(C(=O)N[C@H]3CCC[C@H]4CC[C@@H](C(=O)N5CC(c6cnc(F)cc6OC)C5)N4C3=O)cc2c1)Oc1ccccc1 (stereo partly drawn) [Compound 278, propyl (((2-(((3S,6S,9aS)-3-(3-(6-fluoro-4-methoxypyridin-3-yl)azetidine-1-carbonyl)-5-oxooctahydro-1H-pyrrolo[1,2-a]azepin-6-yl)carbamoyl)benzo [b]thiophen-5-yl)methyl)(phenoxy)phosphoryl)-L-alaninate] was tested, and the IC50 (PBMC, read-out: STAT3) was 100 to 1000 nM.
With CCCCOC(=O)[C@H](C)NP(=O)(Cc1ccc2sc(C(=O)N[C@H]3CCC[C@H]4CC[C@@H](C(=O)N5CC(c6cccnc6)C5)N4C3=O)cc2c1)Oc1ccccc1 (stereo partly drawn) [Compound 279, butyl (((2-(((3S,6S,9aS)-5-oxo-3-(3-(pyridin-3-yl)azetidine-1-carbonyl)octahydro-1H-pyrrolo[1,2-a]azepin-6-yl)carbamoyl)benzo [b]thiophen-5-yl)methyl)(phenoxy)phosphoryl)-L-alaninate] the IC50 (PBMC, read-out: STAT3) was < 100 nM.
For COC1(c2cccnc2)CN(C(=O)[C@@H]2CC[C@@H]3CCCC[C@H](NC(=O)c4cc5cc(CP(=O)(N[C@@H](C)C(=O)OCC(C)C)Oc6ccccc6)ccc5s4)C(=O)N32)C1 (stereo partly drawn) [Compound 281, isobutyl (((2-(((3S,6S,10aS)-3-(3-methoxy-3-(pyridin-3-yl)azetidine-1-carbonyl)-5-oxodecahydropyrrolo [1,2-a]azocin-6-yl)carbamoyl)benzo [b]thiophen-5-yl)methyl)(phenoxy)phosphoryl)-L-alaninate], the IC50 (PBMC, read-out: STAT3) was < 100 nM.
In the case of Cc1ccncc1C1CN(C(=O)[C@@H]2CC[C@@H]3CCCC[C@H](NC(=O)c4cc5cc(CP(=O)(N[C@@H](C)C(=O)OCC(C)C)Oc6ccccc6)ccc5s4)C(=O)N32)C1 (stereo partly drawn) [Compound 282, isobutyl (((2-(((3S,6S,10aS)-3-(3-(4-methylpyridin-3-yl)azetidine-1-carbonyl)-5-oxodecahydropyrrolo [1,2-a]azocin-6-yl)carbamoyl)benzo [b]thiophen-5-yl)methyl)(phenoxy)phosphoryl)-L-alaninate], the IC50 (PBMC, read-out: STAT3) is reported as < 100 nM.
With CCCOC(=O)[C@H](C)NP(=O)(Cc1ccc2sc(C(=O)N[C@H]3C[C@H](C)C[C@H]4CC[C@@H](C(=O)N5CC(c6cnccc6C)C5)N4C3=O)cc2c1)Oc1ccccc1 (stereo partly drawn) [Compound 283, propyl (((2-(((3S,6S,8S,9aR)-8-methyl-3-(3-(4-methylpyridin-3-yl)azetidine-1-carbonyl)-5-oxooctahydro-1H-pyrrolo[1,2-a]azepin-6-yl)carbamoyl)benzo [b]thiophen-5-yl)methyl)(phenoxy)phosphoryl)-L-alaninate] the IC50 (PBMC, read-out: STAT3) was < 100 nM.
With CCCCOC(=O)[C@H](C)N(C)P(=O)(Oc1ccccc1)C(F)(F)c1ccc2sc(C(=O)N[C@H]3CCC[C@H]4CC[C@@H](C(=O)N5CC(c6cccnc6)C5)N4C3=O)cc2c1 (stereo partly drawn) [Compound 285, butyl N-((difluoro(2-(((3S,6S,9aS)-5-oxo-3-(3-(pyridin-3-yl)azetidine-1-carbonyl)octahydro-1H-pyrrolo[1,2-a]azepin-6-yl)carbamoyl)benzo [b]thiophen-5-yl)methyl)(phenoxy)phosphoryl)-N-methyl-L-alaninate] the IC50 (PBMC, read-out: STAT3) was > 3000 nM.
For CCCOC(=O)[C@H](C)NP(=O)(Cc1ccc2sc(C(=O)N[C@H]3CC[C@H](C)C[C@H]4CC[C@@H](C(=O)N5CC(c6cnccc6C)C5)N4C3=O)cc2c1)Oc1ccccc1 (stereo partly drawn) [Compound 286, propyl (((2-(((3S,6S,9S,10aR)-9-methyl-3-(3-(4-methylpyridin-3-yl)azetidine-1-carbonyl)-5-oxodecahydropyrrolo [1,2-a]azocin-6-yl)carbamoyl)benzo [b]thiophen-5-yl)methyl)(phenoxy)phosphoryl)-L-alaninate], the IC50 (PBMC, read-out: STAT3) was < 100 nM.
CCCOC(=O)[C@H](C)NP(=O)(Cc1ccc2sc(C(=O)N[C@H]3CC[C@@H](C)C[C@H]4CC[C@@H](C(=O)N5CC(c6cnccc6C)C5)N4C3=O)cc2c1)Oc1ccccc1 (stereo partly drawn) [Compound 287, propyl (((2-(((3S,6S,9R,10aR)-9-methyl-3-(3-(4-methylpyridin-3-yl)azetidine-1-carbonyl)-5-oxodecahydropyrrolo [1,2-a]azocin-6-yl)carbamoyl)benzo [b]thiophen-5-yl)methyl)(phenoxy)phosphoryl)-L-alaninate] was tested, and the IC50 (PBMC, read-out: STAT3) was < 100 nM.
In the case of CCCCOC(=O)[C@H](C)NP(=O)(Cc1ccc2sc(C(=O)N[C@H]3CCC[C@H]4CC[C@@H](C(=O)N5CC(c6ncccc6C)C5)N4C3=O)cc2c1)Oc1ccccc1 (stereo partly drawn) [Compound 288, butyl (((2-(((3S,6S,9aS)-3-(3-(3-methylpyridin-2-yl)azetidine-1-carbonyl)-5-oxooctahydro-1H-pyrrolo[1,2-a]azepin-6-yl)carbamoyl)benzo [b]thiophen-5-yl)methyl)(phenoxy)phosphoryl)-L-alaninate], the IC50 (PBMC, read-out: STAT3) is reported as 100 to 1000 nM.
CCCOC(=O)[C@H](C)NP(=O)(Cc1ccc2sc(C(=O)N[C@H]3CCC[C@H]4CC[C@@H](C(=O)N5CC(c6cccc(C#N)n6)C5)N4C3=O)cc2c1)Oc1ccccc1 (stereo partly drawn) [Compound 289, propyl (((2-(((3S,6S,9aS)-3-(3-(6-cyanopyridin-2-yl)azetidine-1-carbonyl)-5-oxooctahydro-1H-pyrrolo[1,2-a]azepin-6-yl)carbamoyl)benzo [b]thiophen-5-yl)methyl)(phenoxy)phosphoryl)-L-alaninate] was tested, and the IC50 (PBMC, read-out: STAT3) was < 100 nM.
CCCOC(=O)[C@H](C)NP(=O)(Cc1ccc2sc(C(=O)N[C@H]3CCC[C@H]4CC[C@@H](C(=O)N5CC(c6nccc(C#N)n6)C5)N4C3=O)cc2c1)Oc1ccccc1 (stereo partly drawn) [Compound 290, propyl (((2-(((3S,6S,9aS)-3-(3-(4-cyanopyrimidin-2-yl)azetidine-1-carbonyl)-5-oxooctahydro-1H-pyrrolo[1,2-a]azepin-6-yl)carbamoyl)benzo [b]thiophen-5-yl)methyl)(phenoxy)phosphoryl)-L-alaninate] showed an IC50 (PBMC, read-out: STAT3) of 100 to 1000 nM.
C[C@H](NP(=O)(Cc1ccc2sc(C(=O)N[C@H]3CCC[C@H]4CC[C@@H](C(=O)N5CC(c6cccnc6)C5)N4C3=O)cc2c1)Oc1ccccc1)C(=O)OCCC(F)(F)F (stereo partly drawn) [Compound 291, 3,3,3-trifluoropropyl (((2-(((3S,6S,9aS)-5-oxo-3-(3-(pyridin-3-yl)azetidine-1-carbonyl)octahydro-1H-pyrrolo[1,2-a]azepin-6-yl)carbamoyl)benzo [b]thiophen-5-yl)methyl)(phenoxy)phosphoryl)-L-alaninate] was tested, and the IC50 (PBMC, read-out: STAT3) was < 100 nM.
CCCOC(=O)[C@H](C)NP(=O)(Cc1ccc2sc(C(=O)N[C@H]3CCC[C@H]4CC[C@@H](C(=O)N5CC(c6cccnc6)C5)N4C3=O)cc2c1)Oc1c(C)cccc1C (stereo partly drawn) [Compound 293, propyl ((2,6-dimethylphenoxy) ((2-(((3S,6S,9aS)-5-oxo-3-(3-(pyridin-3-yl)azetidine-1-carbonyl)octahydro-1H-pyrrolo[1,2-a]azepin-6-yl)carbamoyl)benzo [b]thiophen-5-yl)methyl)phosphoryl)-L-alaninate] was tested, and the IC50 (PBMC, read-out: STAT3) was < 100 nM.
Work on CCCOC(=O)C(C)CNP(=O)(Cc1ccc2sc(C(=O)N[C@H]3CCC[C@H]4CC[C@@H](C(=O)N5CC(c6cccnc6)C5)N4C3=O)cc2c1)Oc1ccccc1 (stereo partly drawn) [Compound 294, propyl 2-methyl-3-((((2-(((3S,6S,9aS)-5-oxo-3-(3-(pyridin-3-yl)azetidine-1-carbonyl)octahydro-1H-pyrrolo[1,2-a]azepin-6-yl)carbamoyl)benzo [b]thiophen-5-yl)methyl)(phenoxy)phosphoryl)amino) propanoate] yielded an IC50 (PBMC, read-out: STAT3) of 1000 to 3000 nM.
With CCCCOC(=O)[C@@H]1CC(F)(F)CN1P(=O)(Cc1ccc2sc(C(=O)N[C@H]3CCC[C@H]4CC[C@@H](C(=O)N5CC(c6cccnc6)C5)N4C3=O)cc2c1)Oc1ccccc1 (stereo partly drawn) [Compound 295, butyl (2S)-4,4-difluoro-1-(((2-(((3S,6S,9aS)-5-oxo-3-(3-(pyridin-3-yl)azetidine-1-carbonyl)octahydro-1H-pyrrolo[1,2-a]azepin-6-yl)carbamoyl)benzo [b]thiophen-5-yl)methyl)(phenoxy)phosphoryl) pyrrolidine-2-carboxylate] the IC50 (STAT3, PBMC) was 1000 to 3000 nM.
With CCCOC(=O)[C@H](CC)NP(=O)(Cc1ccc2sc(C(=O)N[C@H]3CCC[C@H]4CC[C@@H](C(=O)N5CC(c6cccnc6)C5)N4C3=O)cc2c1)Oc1ccccc1 (stereo partly drawn) [Compound 296, propyl (2S)-2-((((2-(((3S,6S,9aS)-5-oxo-3-(3-(pyridin-3-yl)azetidine-1-carbonyl)octahydro-1H-pyrrolo[1,2-a]azepin-6-yl)carbamoyl)benzo [b]thiophen-5-yl)methyl)(phenoxy)phosphoryl)amino) butanoate] the IC50 (PBMC, read-out: STAT3) was < 100 nM.
Compound Cc1ccncc1C1CN(C(=O)[C@@H]2CC[C@@H]3CCC[C@H](NC(=O)c4cc5cc(C(F)(F)P(=O)(N[C@@H](C)C(=O)OCc6ccccc6)Oc6ccccc6)ccc5s4)C(=O)N32)C1 (stereo partly drawn) [Compound 297, benzyl ((difluoro(2-(((3S,6S,9aS)-3-(3-(4-methylpyridin-3-yl)azetidine-1-carbonyl)-5-oxooctahydro-1H-pyrrolo[1,2-a]azepin-6-yl)carbamoyl)benzo [b]thiophen-5-yl)methyl)(phenoxy)phosphoryl)-L-alaninate] has an IC50 (PBMC, read-out: STAT3) of 100 to 1000 nM.
